In US11911396B2, “Use of compound in preparation of drug for treating cerebral small vessel disease” (GUANGZHOU CELLPROTEK PHARMACEUTICAL CO., LTD, priority 2017, dated 2024):

Columns and labels:
free hemoglobin = experiment: Immunofluorescence of extravascular free hemoglobin in prefrontal cortex brain tissue, acute hypobaric hypoxia model; assay type: in vivo, cynomolgus monkeys (Macaca fascicularis); settings: 7500 meters for 48 hours, compared with acute hypobaric hypoxia group, FIG. 1
Description: FIG. 1. Acute hypobaric hypoxia caused an increase in extravascular distribution of free hemoglobin in the brain tissue of the prefrontal cortex of cynomolgus monkeys (Macaca fascicularis). […] B. MFI (Mean Fluorescence Intensity) was quantified using Nikon NIS-Element software. The statistics of the relative fluorescence intensity of free hemoglobin distributed extravascularly in the brain tissue of cynomolgus monkeys was shown, and one-way ANOVA analysis and Dunnutt's t test were used to perform statistical tests, **, p<0.01, ns, no statistical difference, n=4. NN: Normobaric Normoxia group; HH: Hypobaric Hypoxia group; HH+Triol: Hypobaric Hypoxia with Triol administration group; HH+PROG: Hypobaric Hypoxia with control drug administration group. PROG represents the control drug progesterone.
The thickness of paraffin sections was 5 μm. For fresh paraffin sections, the sections were dried at 37° C. overnight and then dried at 55° C. for 30 minutes. The sections were quickly placed in xylene for dewaxing. […] NIS-Elements Analysis software was used to analyze the fluorescence intensity of confocal images, which was then normalized with the fluorescence intensity per unit area according to the built-in scale. […]

TNF-α = experiment: Western blot of TNF-α in prefrontal cortex brain tissue, acute hypobaric hypoxia model; assay type: in vivo, cynomolgus monkeys; settings: FIGS. 3A and 3B
Description: FIG. 3. […] A. Protein expression of inflammatory factors IL-6, IL-1β and TNF-α in the brain tissue of the prefrontal cortex of cynomolgus monkeys; B. Statistics of protein relative gray scan values. NN: Normobaric Normoxia group (N=3); HH: Hypobaric Hypoxia group (N=3); HH+Triol: Hypobaric Hypoxia with Triol administration group (N=3); HH+PROG: Hypobaric Hypoxia with control drug administration group (N=3). The gray value was obtained by scanning with Image Lab software, and the relative value was obtained after normalizing with α-Tubulin. One-way ANOVA analysis and Dunnutt's t test were used to perform statistical tests, and in the latter each group was compared with the HH group, *, p<0.05; **, p<0.01.
1) Preparation of protein samples (see the instructions of M-PER protein lysate): After the cells had been processed for the specified time, the medium was aspirated and then washed with 4° C. pre-chilled PBS (0.01M pH7.2˜7.3) for 3 times. […] 2) BCA protein quantification (see the instructions of BCA protein quantification kit): corresponding components were added to a 96-well detection plate by the ratio of quantification reagent A solution:B solution:ddH2O:protein=100:2:7.5:5, and albumin standards diluted in gradient concentration were added to draw a standard curve. […] After the reaction, the absorbance of each well at a wavelength of 562 nm was detected using a microplate reader. […]

For `C[C@@]12CCCC1C1C[C@@H](O)[C@@]3(O)C[C@@H](O)CC[C@]3(C)C1CC2` (stereo partly drawn) [Triol, 5α-androst-3β,5,6β-triol], the “distribution of extravascular free hemoglobin” value (free hemoglobin) was “significantly reduced” and the “expression level of TNF-α” value (TNF-α) was “significantly reduced”.
